# Experimental data published in patent US11725000B2, “Apoptosis inhibitors” (National Institute of Biological Sciences, Beijing, priority 2017, dated 2023).
# Read-outs that look alike come from different tables or passages of the source.
# Test system: U2OS_Bim cells
# Experiment: Apoptosis inhibition assay (Bim-induced apoptosis, cell viability by ATP level)
# Assay type: cell-based
# Conditions: U2OS_Bim cells, read-out: EC50
# How it was run: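 Apoptosis was triggered by doxycycline (0.1 μg/mL) induction of Bim, one hour after compound addition to U2OS_Bim cells. Survival was measured after 24 h from cellular ATP (CellTiter-Glo), relative to DMSO, with zVAD at 20 μM as rescue control. Data are duplicate means, some estimated from preliminary results.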
# [1] = means of duplicates, numbering of Tables 4a/4b
EC50 [1],"EC50 (DOX-induced Bim overexpression, viability 24 h after DOX)",Structure (SMILES)
1 to 1000 nM,,"COc1ccc(Cn2cc(-c3cc(C(F)F)nc([S+]([O-])CCC(OCc4ccccc4)c4ccccc4)n3)ccc2=O)cc1OC (stereo not drawn) [Compound 277, 5-(2-((3-(benzyloxy)-3-phenylpropyl)sulfinyl)-6-(difluoromethyl)pyrimidin-4-yl)-1-(3,4-dimethoxybenzyl)pyridin-2 (1H)-one]"
1 to 1000 nM,,"COc1ccc(Cn2cc(-c3cc(C(F)F)nc(S(=O)(=O)CCC(OCc4ccccc4)c4ccccc4)n3)ccc2=O)cc1OC (stereo not drawn) [Compound 278, 5-(2-((3-(benzyloxy)-3-phenylpropyl)sulfonyl)-6-(difluoromethyl)pyrimidin-4-yl)-1-(3,4-dimethoxybenzyl)pyridin-2 (1H)-one]"
1 to 1000 nM,,"COc1ccc(Cn2cc(-c3cc(C(F)F)nc(S(=O)(=O)CCC(Cl)c4ccccc4)n3)ccc2=O)cc1OC (stereo not drawn) [Compound 279, 5-(2-((3-chloro-3-phenylpropyl)sulfonyl)-6-(difluoromethyl)pyrimidin-4-yl)-1-(3,4-dimethoxybenzyl)pyridin-2 (1H)-one]"
1 to 1000 nM,,"COc1ccc(Cn2cc(-c3cc(C(F)(F)F)nc([S+]([O-])CCC(OCc4ccccc4)c4ccccc4)n3)ccc2=O)cc1OC (stereo not drawn) [Compound 280, 5-(2-((3-(benzyloxy)-3-phenylpropyl)sulfinyl)-6-(trifluoromethyl)pyrimidin-4-yl)-1-(3,4-dimethoxybenzyl)pyridin-2 (1H)-one]"
1 to 1000 nM,,"COc1ccc(Cn2cc(-c3cc(C(F)(F)F)nc(S(=O)(=O)CCC(OCc4ccccc4)c4ccccc4)n3)ccc2=O)cc1OC (stereo not drawn) [Compound 281, 5-(2-((3-(benzyloxy)-3-phenylpropyl)sulfonyl)-6-(trifluoromethyl)pyrimidin-4-yl)-1-(3,4-dimethoxybenzyl)pyridin-2 (1H)-one]"
1 to 1000 nM,,"COc1ccc(Cn2cc(-c3cc(CF)nc(S(=O)(=O)CCC(OCc4ccccc4)c4ccccc4)n3)ccc2=O)cc1OC (stereo not drawn) [Compound 282, 5-(2-((3-(benzyloxy)-3-phenylpropyl)sulfonyl)-6-(fluoromethyl)pyrimidin-4-yl)-1-(3,4-dimethoxybenzyl)pyridin-2 (1H)-one]"
1 to 1000 nM,,"COc1ccc(Cn2cc(-c3cc(C(F)F)nc([S+]([O-])CCC(OCc4ccccc4F)c4ccccc4)n3)ccc2=O)cc1F (stereo not drawn) [Compound 283, 5-(6-(difluoromethyl)-2-(3-(2-fluorobenzyloxy)-3-phenylpropylsulfinyl)pyrimidin-4-yl)-1-(3-fluoro-4-methoxybenzyl)pyridin-2 (1H)-one]"
1 to 1000 nM,,"COc1ccc(Cn2cc(-c3cc(C(F)F)nc(S(=O)(=O)CCC(OCc4ccccc4F)c4ccccc4)n3)ccc2=O)cc1F (stereo not drawn) [Compound 284, 5-(6-(difluoromethyl)-2-(3-(2-fluorobenzyloxy)-3-phenylpropylsulfonyl)pyrimidin-4-yl)-1-(3-fluoro-4-methoxybenzyl)pyridin-2 (1H)-one]"
1 to 1000 nM,,"COc1ccc(Cn2cc(-c3cc(C(F)F)nc(S(=O)(=O)CCC(OCc4ccc(F)cc4F)c4ccccc4)n3)ccc2=O)cc1F (stereo not drawn) [Compound 286, 5-(2-(3-(2,4-difluorobenzyloxy)-3-phenylpropylsulfonyl)-6-(difluoromethyl)pyrimidin-4-yl)-1-(3-fluoro-4-methoxybenzyl)pyridin-2 (1H)-one]"
1 to 1000 nM,,"COc1ccc(Cn2cc(-c3cc(C(F)F)nc(S(=O)(=O)CCC(O)c4ccccc4)n3)ccc2=O)cc1F (stereo not drawn) [Compound 287, 5-(6-(difluoromethyl)-2-((3-hydroxy-3-phenylpropyl)sulfonyl)pyrimidin-4-yl)-1-(3-fluoro-4-methoxybenzyl)pyridin-2 (1H)-one]"
1 to 1000 nM,,"COc1ccc(Cn2cc(-c3cc(C(F)F)nc(S(=O)(=O)CCCC(=O)NC45CC6CC(CC(C6)C4)C5)n3)ccc2=O)cc1OC [Compound 288, N-((3s,5s,7s)-adamantan-1-yl)-4-((4-(difluoromethyl)-6-(1-(3,4-dimethoxybenzyl)-6-oxo-1,6-dihydropyridin-3-yl)pyrimidin-2-yl)sulfonyl)butanamide]"
1 to 1000 nM,0.42 nM,COc1ccc(Cn2cc(-c3cc(C(F)(F)F)nc(S(=O)(=O)CCCC(=O)NC45CC6CC(CC(C6)C4)C5)n3)ccc2=O)cc1OC [Compound 289]
1000 to 10000 nM,,"[O-][S+](CCC(OCc1ccccc1)c1ccccc1)c1nc(-c2cccs2)cc(C(F)(F)F)n1 (stereo not drawn) [Compound 290, 2-(3-(benzyloxy)-3-phenylpropylsulfinyl)-4-(thiophen-2-yl)-6-(trifluoromethyl)pyrimidine]"
1000 to 10000 nM,,"O=S(=O)(CCC(OCc1ccccc1)c1ccccc1)c1nc(-c2cccs2)cc(C(F)(F)F)n1 (stereo not drawn) [Compound 291, 2-(3-(benzyloxy)-3-phenylpropylsulfonyl)-4-(thiophen-2-yl)-6-(trifluoromethyl)pyrimidine]"
1000 to 10000 nM,,"O=S(=O)(CCC(Cl)c1ccccc1)c1nc(-c2cccs2)cc(C(F)(F)F)n1 (stereo not drawn) [Compound 292, 2-((3-chloro-3-phenylpropyl)sulfonyl)-4-(thiophen-2-yl)-6-(trifluoromethyl)pyrimidine]"
1 to 1000 nM,,"COc1ccc(Cn2cc(-c3nc(S(=O)(=O)CCC(OCc4ccccc4)c4ccccc4)nc4ccccc34)ccc2=O)cc1OC (stereo not drawn) [Compound 293, 5-(2-((3-(benzyloxy)-3-phenylpropyl)sulfonyl)quinazolin-4-yl)-1-(3,4-dimethoxybenzyl)pyridin-2 (1H)-one]"
1 to 1000 nM,,"COc1ccc(Cn2cc(-c3cc(C)nc([S+]([O-])CCC(OCc4ccccc4)c4ccccc4)n3)ccc2=O)cc1OC (stereo not drawn) [Compound 294, 5-(2-(3-(benzyloxy)-3-phenylpropylsulfinyl)-6-methylpyrimidin-4-yl)-1-(3,4-dimethoxybenzyl)pyridin-2 (1H)-one]"
1 to 1000 nM,,"COc1ccc(Cn2cc(-c3cc(C)nc(S(=O)(=O)CCC(OCc4ccccc4)c4ccccc4)n3)ccc2=O)cc1OC (stereo not drawn) [Compound 295, 5-(2-(3-(benzyloxy)-3-phenylpropylsulfonyl)-6-methylpyrimidin-4-yl)-1-(3,4-dimethoxybenzyl)pyridin-2 (1H)-one]"
1000 to 10000 nM,,"COc1ccc(Cn2cc(-c3cc(-c4ccccc4F)nc(S(C)(=O)=O)n3)ccc2=O)cc1OC [Compound 296, 1-(3,4-dimethoxybenzyl)-5-(6-(2-fluorophenyl)-2-(methylsulfonyl)pyrimidin-4-yl)pyridin-2 (1H)-one]"
< 100000 nM,,"COc1ccc(Cn2cc(-c3cc(-c4ccccc4F)nc([S+]([O-])CCC(OCc4ccccc4)c4ccccc4)n3)ccc2=O)cc1OC (stereo not drawn) [Compound 297, 5-(2-((3-(benzyloxy)-3-phenylpropyl)sulfinyl)-6-(2-fluorophenyl)pyrimidin-4-yl)-1-(3,4-dimethoxybenzyl)pyridin-2 (1H)-one]"
< 100000 nM,,"COc1ccc(Cn2cc(-c3cc(-c4ccccc4F)nc(S(=O)(=O)CCC(OCc4ccccc4)c4ccccc4)n3)ccc2=O)cc1OC (stereo not drawn) [Compound 298, 5-(2-((3-(benzyloxy)-3-phenylpropyl)sulfonyl)-6-(2-fluorophenyl)pyrimidin-4-yl)-1-(3,4-dimethoxybenzyl)pyridin-2 (1H)-one]"
< 100000 nM,,"COc1ccc(Cn2cc(-c3cc(-c4cccs4)nc([S+]([O-])CCC(OCc4ccccc4)c4ccccc4)n3)ccc2=O)cc1OC (stereo not drawn) [Compound 299, 5-(2-((3-(benzyloxy)-3-phenylpropyl)sulfinyl)-6-(thiophen-2-yl)pyrimidin-4-yl)-1-(3,4-dimethoxybenzyl)pyridin-2 (1H)-one]"
1 to 1000 nM,,"COc1ccc(Cn2cc(-c3cc(-c4cccs4)nc(S(=O)(=O)CCC(OCc4ccccc4)c4ccccc4)n3)ccc2=O)cc1OC (stereo not drawn) [Compound 300, 5-(2-((3-(benzyloxy)-3-phenylpropyl)sulfonyl)-6-(thiophen-2-yl)pyrimidin-4-yl)-1-(3,4-dimethoxybenzyl)pyridin-2 (1H)-one]"
1000 to 10000 nM,,"COc1ccc(Cn2cc(-c3nc([S+]([O-])CCC(OCc4ccccc4F)c4ccccc4)nc4sccc34)cc(F)c2=O)cc1F (stereo not drawn) [Compound 301, 3-fluoro-1-(3-fluoro-4-methoxybenzyl)-5-(2-(3-(2-fluorobenzyloxy)-3-phenylpropylsulfinyl)thieno[2,3-d]pyrimidin-4-yl)pyridin-2 (1H)-one]"
1 to 1000 nM,,"COc1ccc(Cn2cc(-c3nc(S(=O)(=O)CCC(OCc4ccccc4F)c4ccccc4)nc4sccc34)cc(F)c2=O)cc1F (stereo not drawn) [Compound 302, 3-fluoro-1-(3-fluoro-4-methoxybenzyl)-5-(2-(3-(2-fluorobenzyloxy)-3-phenylpropylsulfonyl)thieno[2,3-d]pyrimidin-4-yl)pyridin-2 (1H)-one]"
< 100000 nM,,"COc1ccc(Cn2cc(-c3cc(C)nc(S(=O)(=O)CCC(C)=O)n3)cc(F)c2=O)cc1F [Compound 303, 3-fluoro-1-(3-fluoro-4-methoxybenzyl)-5-(6-methyl-2-((3-oxobutyl)sulfonyl)pyrimidin-4-yl)pyridin-2 (1H)-one]"
< 100000 nM,,"COc1ccc(Cn2cc(-c3cc(C)nc([S+]([O-])CCC(C)OCc4ccccc4F)n3)cc(F)c2=O)cc1F (stereo not drawn) [Compound 304, 3-fluoro-1-(3-fluoro-4-methoxybenzyl)-5-(2-((3-((2-fluorobenzyl)oxy)butyl)sulfinyl)-6-methylpyrimidin-4-yl)pyridin-2 (1H)-one]"
1 to 1000 nM,,"COc1ccc(Cn2cc(-c3cc(C)nc(S(=O)(=O)CCC(C)OCc4ccccc4F)n3)cc(F)c2=O)cc1F (stereo not drawn) [Compound 305, 3-fluoro-1-(3-fluoro-4-methoxybenzyl)-5-(2-((3-((2-fluorobenzyl)oxy)butyl)sulfonyl)-6-methylpyrimidin-4-yl)pyridin-2 (1H)-one]"
1 to 1000 nM,,"Cc1cc(-c2cnc(=O)n(Cc3ccc4c(c3)OCO4)c2)nc(S(=O)(=O)CCC(OCc2ccccc2F)c2ccccc2)n1 (stereo not drawn) [Compound 307, 1′-(benzo[d][1,3]dioxol-5-ylmethyl)-2-((3-((2-fluorobenzyl)oxy)-3-phenylpropyl)sulfonyl)-6-methyl-[4,5′-bipyrimidin]-2′(1′H)-one]"
